Experimental data: patent US4100346A, “Certain 7(o-amino-methyl- or methylaminomethylphenyl- or cyclohexadienyl- or thienylacetamide)-3[1-carboxymethyl-(or ethyl- or propyl-)-tetrazol-5-ylthiomethyl]-3-cephem-4-carboxylic acids” (Bristol-Myers Company, priority 1976, dated 1978)
In brackets after ≈: the same amount, converted by molar mass.

How the values were obtained:
[1] = system: P. mirabilis; test: MIC by Tube Dilution Technique in Nutrient Broth (Example 9 table); format: cell-based; details: Proteus mirabilis; Pm-2 P. mirabilis A9900
From the text: (§1) MIC (mcg./ml.) by Tube Dilution Technique in Nutrient Broth.

[2] = system: E. coli; test: as above; format: cell-based; details: Escherichia coli
From the text: as §1

[3] = system: S. enteritidis; test: as above; format: cell-based; details: Salmonella enterica; Se-1 S. enteritidis A9531
From the text: as §1

[4] = system: E. cloacae; test: as above; format: cell-based; details: Enterobacter cloacae; El-1 E. cloacae A9656
From the text: as §1

[5] = system: S. marcescens; test: as above; format: cell-based; details: Serratia marcescens; Sm-1 S. marcescens A20019
From the text: as §1

[6] = system: P. morganii; test: as above; format: cell-based; details: Morganella morganii; Pg-8 P. morganii A15153
From the text: as §1

[7] = system: D. pneumoniae; test: as above; format: cell-based; details: Streptococcus pneumoniae; Dp-4 D. pneumoniae A9585
From the text: as §1

[8] = system: P. aeruginosa; test: as above; format: cell-based; details: Pseudomonas aeruginosa; P. aeruginosa A9843
From the text: as §1

[9] = system: S. aureus; test: as above; format: cell-based; details: Staphylococcus aureus
From the text: as §1

[10] = system: K. pneumoniae; test: as above; format: cell-based; details: Klebsiella pneumoniae
From the text: as §1

[11] = system: S. pyogenes; test: as above; format: cell-based; details: Streptococcus pyogenes; Sp-3 S. pyogenes A9604
From the text: as §1

[12] = system: E. coli; test: M.I.C. by Tube Dilution in Nutrient Broth (Examples 1 and 2); format: cell-based; details: Escherichia coli, E. coli A9675 (10^-4)
From the text: (§2) | **Dilution of overnight broth culture

[13] = system: Pr. morganii; test: as above; format: cell-based; details: Morganella morganii; Pr. morganii A15153 (10^-4)
From the text: as §2

[14] = system: Ser. marcescens; test: as above; format: cell-based; details: Serratia marcescens; Ser. marcescens A20019 (10^-4)
From the text: as §2

[15] = system: Ps. aeruginosa; test: as above; format: cell-based; details: Pseudomonas aeruginosa
From the text: as §2

[16] = system: S. aureus; test: as above; format: cell-based; details: Staphylococcus aureus
From the text: as §2

[17] = system: Sal. enteritidis; test: as above; format: cell-based; details: Salmonella enterica; Sal. enteritidis A9531 (10 ^4)
From the text: as §2

[18] = system: Pr. mirabilis; test: as above; format: cell-based; details: Proteus mirabilis; Pr. mirabilis A9900 (10^-4)
From the text: as §2

[19] = system: Ent. cloacae; test: as above; format: cell-based; details: Enterobacter cloacae
From the text: as §2

[20] = system: Str. pneumoniae; test: as above; format: cell-based; details: Streptococcus pneumoniae; Str. pneumoniae A9585 (10^-3 dilution of overnight broth culture); 45% Antibiotic Assay Broth + 50% Nutrient Broth + 5% serum
From the text: (§3) *45% Antibiotic Assay Broth + 50% Nutrient Broth + 5% serum
(§4) **Dilution of overnight broth culture

[21] = system: Str. pyogenes; test: as above; format: cell-based; details: Streptococcus pyogenes; Str. pyogenes A9604 (10^-3); 45% Antibiotic Assay Broth + 50% Nutrient Broth + 5% serum
From the text: as §3, §4

[22] = system: S. aureus; test: Growth inhibitory activity, antibiotic dilution technique; details: 63 strains tested
[23] = Stability in solution, 0.005 M phosphate buffer pH 7.4, 37° C.; format: physicochemical; details: pH 7.4 and 37° C.
Protocol: Stability in Solution. Stability in solution was determined at 37° C. in 0.005 M phosphate buffer of pH 7.4. […] Residual antibiotic activity was determined periodically over a 24-hour period by a turbidimetric assay procedure or by an antibiotic diffusion technique (cephalothin).

[24] = Solubility in water, buffer or urine; details: soluble as Na^+ salt, as Na^+ salt
[25] = system: Streptococcus faecalis; test: Growth inhibitory activity, antibiotic dilution technique
[26] = system: S. viridans; test: as above; details: Streptococcus viridans, read-out: concentration inhibiting all strains
[27] = system: Enterobacter sp. and Citrobacter sp.; test: Growth inhibitory activity, antibiotic dilution technique (text summary); details: compared with cephalothin, cephaloridine, cefazolin

`NCc1ccccc1CC(=O)N[C@@H]1C(=O)N2C(C(=O)O)=C(CSc3nnnn3CC(=O)O)CS[C@H]12` [Example 1] gave an MIC [1] of 0.4 µg/mL (≈ 0.77 µM), an MIC ([2]; Ec-1 E. coli NIHJ) of 0.8 µg/mL (≈ 1.54 µM) and an MIC ([2]; Ec-3 E. coli Juhl A15119) of 0.8 µg/mL (≈ 1.54 µM). The MIC ([2]; Ec-58 E. coli A9675) was 6.3 µg/mL (≈ 12.1 µM), the MIC [3] was 0.2 µg/mL (≈ 0.385 µM) and the MIC [4] was 50 µg/mL (≈ 96.2 µM). The MIC [5] was greater than 100 µg/mL, the MIC [6] was 6.3 µg/mL (≈ 12.1 µM) and the MIC [7] was 0.16 µg/mL (≈ 0.308 µM). For the same molecule, the MIC [8] was greater than 100 µg/mL, the MIC ([9]; Sa-2 S. aureus +50% serum) was greater than 3.1 µg/mL and the MIC ([9]; Sa-2 S. aureus Smith A9537) was 3.1 µg/mL (≈ 5.97 µM). The MIC ([9]; Sa-11 S. aureus BX-1633 A9606) was 3.1 µg/mL (≈ 5.97 µM), the MIC ([9]; Sa-44 S. aureus A15097) was 6.3 µg/mL (≈ 12.1 µM) and the MIC ([10]; Kp-3 K. pneumoniae A9977) was 0.2 µg/mL (≈ 0.385 µM). It also gave an MIC ([10]; Kp-4 K. pneumoniae A15130) of 1.6 µg/mL (≈ 3.08 µM), an MIC [11] of 0.16 µg/mL (≈ 0.308 µM) and an MIC [12] of 16 µg/mL (≈ 30.8 µM). For the same molecule, the MIC [13] was 32 µg/mL (≈ 61.6 µM), the MIC [14] was 125 µg/mL (≈ 241 µM) and the MIC [15] was greater than 125 µg/mL. For the same molecule, the MIC ([16]; S. aureus BX1633 A9606 (10^-2)) was 2 µg/mL (≈ 3.85 µM), the MIC ([16]; S. aureus BX1633 A9606 (10^-3)) was 1 µg/mL (≈ 1.92 µM) and the MIC ([16]; S. aureus Meth-Res A15097 (10^-3)) was 4 µg/mL (≈ 7.7 µM). It also gave an MIC ([16]; S. aureus Smith A9537 (10^-4)) of 1 µg/mL (≈ 1.92 µM), an MIC ([16]; S. aureus-50% serum A9537 (10^-4)) of 4 µg/mL (≈ 7.7 µM) and an MIC [17] of 0.06 µg/mL (≈ 0.115 µM). It also gave an MIC [18] of 0.13 µg/mL (≈ 0.25 µM), an MIC ([19]; Ent. cloacae A9657 (10^-4)) of 0.25 µg/mL (≈ 0.481 µM) and an MIC ([19]; Ent. cloacae A9659 (10^-4)) of 32 µg/mL (≈ 61.6 µM). The MIC ([19]; Ent. cloacae A9656 (10^-4)) was greater than 125 µg/mL, the MIC [20] was 0.13 µg/mL and the MIC [21] was 0.13 µg/mL. For the same molecule, the “number of strains of S. aureus inhibited” value ([22]; at 4 mcg./ml.) was 62 strains, the “number of strains of S. aureus inhibited” value ([22]; at 8 mcg./ml.) was 63 strains and the half-life [23] was greater than 24 h. The solubility [24] was no less than 250 mg/mL, the “susceptibility of Streptococcus faecalis” value [25] was “resistant” and the MIC [26] was 4 µg/mL (≈ 7.7 µM). The “activity against Enterobacter sp. and Citrobacter sp.” value [27] was “alone was active”.
